Columns and labels:
[1] = biological target: T1, H2-receptor (Homo sapiens, UniProt P25021); settings: cited from earlier work
[2] = biological target: T1, H2-receptor; settings: cited from earlier work; remark: listed apart in the source
[3] = system: herpes simplex virus (HSV) type 2; settings: animals inoculated intravenously with HSV; cited from earlier work
[4] = Effect of rate and duration of histamine administration on side effects and efficacy; settings: administered over longer than about 30 minutes
[5] = prior reports; cited from earlier work
[6] = Experimental: Peripheral blood venous samples were drawn in 10 ml heparinized test tubes before the onset of treatment and weekly thereafter. […] The manufacturer's instructions provided with the kit, dated June, 1989, were followed. Blood histamine levels were measured at the indicated times.
[7] = system: Acute Myelogenous Leukernia; settings: IL-2 as the single agent; cited from earlier work

T1 sequence (P25021 whole entry): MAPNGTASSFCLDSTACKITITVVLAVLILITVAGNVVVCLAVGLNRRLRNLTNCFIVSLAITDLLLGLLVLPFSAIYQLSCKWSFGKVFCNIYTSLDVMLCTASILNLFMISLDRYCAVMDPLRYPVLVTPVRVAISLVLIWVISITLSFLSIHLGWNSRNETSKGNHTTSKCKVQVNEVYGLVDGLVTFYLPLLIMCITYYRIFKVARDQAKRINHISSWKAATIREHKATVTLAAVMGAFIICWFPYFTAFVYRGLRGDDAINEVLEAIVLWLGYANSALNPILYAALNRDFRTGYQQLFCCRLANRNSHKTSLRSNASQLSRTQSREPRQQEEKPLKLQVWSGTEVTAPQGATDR

For `CN(C)CCCSC(=N)N` [dimaprit], the “effect of histamine on granulocyte mediated suppression of antibody dependent cytotoxicity of NK cells” value [1] is listed as “mimicked” and the “NK cell mediated cytotoxicity” value [2] is listed as “capable of augmenting NK cell mediated cytotoxicity”.

In the case of `NCCc1c[nH]cn1` [histamine], the survival time [3] is listed as “prolong survival time”, the “efficacy on prolonged administration” value [4] is listed as “decreased or lack of efficacy” and the “half life in the blood” value [5] is listed as “five”. The “persistence of circulating blood histamine levels” value ([6]; even after histamine administration was discontinued) was “remained elevated for sustained periods of time” and the “circulating blood histamine levels following histamine administration” value ([6]; histamine 0.4-0.7 mg s.c. twice daily with IL-2 for 21 days, samples at least 8 hours after last injection, beneficial = at least 0.2 μmole/L) was “rose to beneficial levels”.

In the case of `CNC(=C[N+](=O)[O-])NCCSCc1ccc(CN(C)C)o1` [ranitidine], the “effect of histamine on granulocyte mediated suppression of antibody dependent cytotoxicity of NK cells” value [1] is listed as “blocked”.

For “IL-2: cytokine synthesized by T cells; human recombinant interleukin-2 (Proleukin, Eurocetus)”, the “fraction of AML patients with inversion of remission time” value [7] is given as < 10%.
